# Activity calls are given as the source filed them. No cut-off for these calls is given here.
# Assays:
# Lipid bilayer [1] = assay: Binding affinity to DMPG vesicles assessed as change in enthalpy by differential scanning calorimetric analysis
# Lipid bilayer [2] = assay: Binding affinity to DMPG vesicles assessed as melting transition temperature by differential scanning calorimetric analysis (reference value: 21.09 to 23.32 degC)
# Lipid bilayer [3] = assay: Binding affinity to DMPG vesicles assessed as increase in width at 1/2 height of endotherm of compound containing vesicles by differential scanning calorimetric analysis
# [4] = system: Mycobacterium tuberculosis; assay: Antimycobacterial activity against Mycobacterium tuberculosis H37Rv ATCC 27294 assessed as growth inhibition at 10 uM after 5 days relative to control; assay type: functional; settings: H37Rv ATCC 27294, 120 h, read-out: GI
# [5] = system: Mycolicibacterium smegmatis; assay: Antimycobacterial activity against Mycobacterium smegmatis MC2 155 ATCC 700084 assessed as growth inhibition at 10 uM after 5 days relative to control; assay type: functional; settings: MC2 155 ATCC 700084, 120 h, read-out: GI
# [6] = Therapeutic index, ratio of HC50 for human RBC to MIC50 for Mycobacterium tuberculosis H37Rv ATCC 27294
# [7] = system: Mycobacterium tuberculosis; assay: Antimycobacterial activity against Mycobacterium tuberculosis H37Rv ATCC 27294 after 5 days by broth dilution method; assay type: functional; settings: H37Rv ATCC 27294, 120 h
# HepG2 = assay: Cytotoxicity against human HepG2 cells assessed as reduction in cell viability after 48 hrs by MTT assay; assay type: cell-based; settings: HepG2, 48 h
# Vero C1008 = assay: Cytotoxicity against African green monkey Vero E6 cells assessed as reduction in cell viability after 48 hrs by 96 aqueous one-based assay; settings: Chlorocebus sabaeus, Vero C1008, 48 h
# [8] = Aqueous solubility of compound at pH 7.4 at 25 degC after 24 hrs; assay type: physicochemical; settings: buffer
# [9] = Selectivity index, ratio of IC50 for human HepG2 cells to MIC50 for Mycobacterium tuberculosis H37Rv ATCC 27294; assay type: toxicity; settings: read-out: Selectivity Index
# [10] = Selectivity index, ratio of IC50 for African green monkey Vero E6 cells to MIC50 for Mycobacterium tuberculosis H37Rv ATCC 27294; assay type: toxicity, Vero C1008; settings: read-out: Selectivity Index
# [11] = Half life in rat liver microsomes preincubated for 5 mins followed by NADPH addition measured up to 45 mins by LC-MS analysis; assay type: ADME, microsome
# [12] = system: Mycobacteroides abscessus; assay: Antimycobacterial activity against Mycobacterium abscessus Bamboo after 3 days; assay type: functional; settings: 72 h
# Mycobacterium avium = assay: Antimycobacterial activity against Mycobacterium avium 11 after 4 days; assay type: functional; settings: Mycobacterium avium, 11, 96 h
# Staphylococcus aureus = assay: Antibacterial activity against Staphylococcus aureus ATCC 29213 after 18 hrs; assay type: functional; settings: ATCC 29213, 18 h
# Escherichia coli = assay: Antibacterial activity against Escherichia coli ATCC 25922 after 18 hrs; assay type: functional
Structure (SMILES),deltaH (Lipid bilayer [1]),Tm (Lipid bilayer [2]),inhibition of growth at 10 µM [4],inhibition of growth at 10 µM [5],selectivity ratio [10],other results
CCCCCCCCCCn1cc(CN2CCCCCC2)c2c(F)cccc21,-0.963 kcal/mol,18.6 °C,99%,99%,–,Activity (Lipid bilayer [3]): inactive
CCCCCCCCn1cc(CN2CCCCCC2)c2c(F)cccc21,-1.39 kcal/mol,18 °C,99%,99%,12.7,TI [6]: 15 to 30; MIC50 [7]: 2.3 µM; MIC90 [7]: 5 µM; IC50 (HepG2): 19.2 µM; IC50 (Vero C1008): 29.2 µM; solubility at 24 h [8]: 35.9 µM; selectivity ratio [9]: 8.3; half-life [11]: 560 min; Activity (Lipid bilayer [3]): Active; MIC50 [12]: 19 µM; MIC50 (Mycobacterium avium): 2 µM; MIC50 (Staphylococcus aureus): 8 µM; Activity (Escherichia coli): inactive
CCCCCCCCn1cc(CN2CCC3(CC2)OCCO3)c2ccc(F)cc21,-2.15 kcal/mol,18.5 °C,99%,99%,15.8,MIC50 [7]: 3 µM; MIC90 [7]: 6 µM; IC50 (HepG2): 25.5 µM; IC50 (Vero C1008): 47.5 µM; selectivity ratio [9]: 8.5
CCCCCCCCn1cc(CN2CCC(C)CC2)c2ccc(OC)cc21,-1.63 kcal/mol,18.9 °C,99%,99%,21.5,TI [6]: 15 to 30; MIC50 [7]: 1.5 µM; MIC90 [7]: 3.3 µM; IC50 (HepG2): 15.7 µM; IC50 (Vero C1008): 32.2 µM; solubility at 24 h [8]: 44.9 µM; selectivity ratio [9]: 10.5; half-life [11]: 5.5 min
CCCCCCCCn1cc(CN2CCC3(CC2)OCCO3)c2c(F)cccc21,-1.7 kcal/mol,19.4 °C,99%,99%,7.3,MIC50 [7]: 5.3 µM; MIC90 [7]: 10.6 µM; IC50 (HepG2): 21.8 µM; IC50 (Vero C1008): 38.9 µM; selectivity ratio [9]: 4.1
CCCCCCCCn1cc(C(=O)N2CCCCCC2)c2cc(F)ccc21,-2.52 kcal/mol,18.9 °C,99%,99%,–,Activity (Lipid bilayer [3]): inactive
CCCCCCn1cc(CN2CCCCCC2)c2c(F)cccc21,-1.52 kcal/mol,19 °C,99%,99%,–,–
CCn1cc(CN2CCCCCC2)c2c(F)cccc21,-3.44 kcal/mol,19.8 °C,99%,99%,–,–
CCCCCCCCn1ccc2c(F)cccc21,-3.34 kcal/mol,19.9 °C,99%,99%,–,Activity (Lipid bilayer [3]): inactive
CCCCCCCCCCCCn1cc(CN2CCCCCC2)c2c(F)cccc21,-0.44 kcal/mol,18.8 °C,99%,99%,–,Activity (Lipid bilayer [3]): inactive
CC(C)=CCC/C(C)=C/Cn1cc(CN2CCCCC2)c2cc(F)ccc21,–,–,99%,99%,6,solubility at 24 h [8]: 25 µM
CCCCCCCCn1cc(CNC23CC4CC(CC(C4)C2)C3)c2c(F)cccc21,–,–,99%,99%,8,MIC50 [7]: 2 µM; MIC90 [7]: 3 µM; IC50 (HepG2): 13 µM; IC50 (Vero C1008): 16 µM; solubility at 24 h [8]: 10.2 µM; selectivity ratio [9]: 6.5; half-life [11]: 15.9 min
CCCCCCCCn1cc(CN2CCC(C)CC2)c2c(F)cccc21,-2.69 kcal/mol,19.8 °C,99%,99%,11.7,MIC50 [7]: 3 µM; MIC90 [7]: 6 µM; IC50 (HepG2): 15.6 µM; IC50 (Vero C1008): 35.2 µM; solubility at 24 h [8]: 23.2 µM; selectivity ratio [9]: 5.2; half-life [11]: 22.8 min
Fc1cccc2[nH]cc(CN3CCCCCC3)c12,-4.83 kcal/mol,20.4 °C,99%,99%,–,–
CCCCn1cc(CN2CCCCCC2)c2c(F)cccc21,-3.3 kcal/mol,19 °C,99%,99%,–,–
CCCCCCCCn1cc(CN2CCC3(CC2)OCCO3)c2ccc(OC)cc21,-1.59 kcal/mol,18.1 °C,99%,99%,38.4,TI [6]: 15 to 30; MIC50 [7]: 1.2 µM; MIC90 [7]: 2.3 µM; IC50 (HepG2): 15.7 µM; IC50 (Vero C1008): 46.1 µM; solubility at 24 h [8]: 31.3 µM; selectivity ratio [9]: 13.1; half-life [11]: 27.9 min
CCCCCCCCn1cc(CN2CCCCC2)c2cccc(F)c21,–,–,99%,99%,–,–
CCCCCCCCn1cc(CN(CC)CC)c2cc(F)ccc21,–,–,99%,99%,–,–
CCCCCCCCn1cc(CN2CCCCCC2)c2cccc(F)c21,–,–,99%,99%,–,–
CCCCCCCCn1cc(CNC23CC4CC(CC(C4)C2)C3)c2cc(OC)ccc21,–,–,99%,99%,–,–
CC(C)=CCC/C(C)=C/Cn1cc(CNC2CCCCCC2)c2cc(F)ccc21,–,–,99%,99%,–,–
CC(C)=CCC/C(C)=C/Cn1cc(CN2CCS(=O)(=O)CC2)c2cc(F)ccc21,–,–,99%,99%,–,–
CCCCNC(=O)Cn1cc(CN2CCCCC2)c2cc(F)ccc21,–,–,99%,99%,–,–
CCCCCCCCn1cc(CNC2CC2)c2cc(F)ccc21,–,–,99%,99%,–,–
CCCCCCCCn1cc(CN2CCSCC2)c2cc(F)ccc21,–,–,99%,99%,–,–
CC(C)=CCC/C(C)=C/Cn1cc(CN(C)C)c2cc(F)ccc21,–,–,99%,99%,–,–

# Source: ChEMBL document CHEMBL4007488, “Amphiphilic Indole Derivatives as Antimycobacterial Agents: Structure-Activity Relationships and Membrane Targeting Properties” (J Med Chem, 2017)
